Reference: patent US20030105118A1, “Tricyclic quinazolinediones” (priority 2002, published 2003)
Counter-ions that a name gives are not always drawn.

system: not given; experiment: not given; conditions: not given

Structure (SMILES) | melting point
O=c1[nH]c(=O)n2c3c(cccc13)CCC2CO (centres unmarked) [Example 3, 5-(hydroxymethyl)-6,7-dihydro-1H,5H-pyrido[3,2,1-ij]-quinazoline-1,3(2H)-dione] | 205 to 207 °C
Cl.NCc1ccc(C(=O)NCC2Cc3cccc4c(=O)[nH]c(=O)n(c34)C2)cc1 (centres unmarked) | > 300 °C
Cl.NCC1CCn2c(=O)[nH]c(=O)c3cccc1c32 (centres unmarked) | 190 °C (dec.)
Cl.NC1Cc2cccc3c(=O)[nH]c(=O)n(c23)C1 (centres unmarked) | > 300 °C
Cl.NCC1CCc2cccc3c(=O)[nH]c(=O)n1c23 (centres unmarked) | > 300 °C
O=c1[nH]c(=O)n2c3c(cccc13)CC(CO)C2 (centres unmarked) [Example 5, 6-(Hydroxymethyl)-6,7-dihydro-1H,5H-pyrido[3,2,1-ij]quinazoline-1,3(2H)-dione] | 252 to 254 °C
Cl.NCC1Cc2cccc3c(=O)[nH]c(=O)n1c23 (centres unmarked) | > 300 °C
O=c1[nH]c(=O)n2c3c(cccc13)CC2 [Example 1, 5,6-dihydro-1H-pyrrolo[3,2,1-ij]quinazoline-1,3(2H)-dione] | 314 to 315 °C
O=c1[nH]c(=O)n2c3c(cccc13)C(CBr)CC2 (centres unmarked) [Example 10, 7-(Bromomethyl)-6,7-dihydro-1H,5H-pyrido[3,2,1-ij]quinazoline-1,3(2H)-dione] | 225 °C (dec.)
O=c1[nH]c(=O)n2c3c(cccc13)CCC2 [Example 2, 6,7-Dihydro-1H,5H-pyrido[3,2,1-ij]quinazoline-1,3(2H)-dione] | 282 to 284 °C
O=c1[nH]c(=O)n2c3c(cccc13)C(CO)CC2 (centres unmarked) [Example 6, 7-(Hydroxymethyl)-6,7-dihydro-1H,5H-pyrido[3,2,1-ij]quinazoline-1,3(2H)-dione] | 226 °C (dec.)
Cl.NCCC(=O)NCC1Cc2cccc3c(=O)[nH]c(=O)n1c23 (centres unmarked) | 290 to 296 °C (dec.)
O=c1[nH]c(=O)n2c3c(cccc13)CC2CO (centres unmarked) [Example 4, 5-(Hydroxymethyl)-5,6-dihydro-1H-pyrrolo[3,2,1-ij]quinazoline-1,3(2H)-dione] | 238 to 240 °C
O=c1[nH]c(=O)n2c3c(cccc13)CC(CBr)C2 (centres unmarked) [Example 9, 6-(Bromomethyl)-6,7-dihydro-1H,5H-pyrido[3,2,1-ij]quinazoline-1,3(2H)-dione] | 267 to 270 °C (dec.)

The next lines start with the values.

melting point | Structure (SMILES)
240 to 243 °C (dec.) | CN(C)Cc1ccc(C(=O)NCC2Cc3cccc4c(=O)[nH]c(=O)n(c34)C2)cc1 (centres unmarked) [Example 33, 4-[(Dimethylamino)methyl]-N-[(1,3-dioxo-2,3,6,7-tetrahydro-1H,5H-pyrido[3,2,1-ij]quinazolin-6-yl)methyl]benzamide]
247 to 250 °C | O=C(NCC1Cc2cccc3c(=O)[nH]c(=O)n(c23)C1)c1ccccn1 (centres unmarked) [Example 24, N-[(1,3-Dioxo-2,3,6,7-tetrahydro-1H,5H-pyrido[3,2,1-ij]quinazolin-6-yl)methyl]-2-pyridinecarboxamide]
268 to 278 °C (dec.) | CN(C)c1ccc(C(=O)NCC2Cc3cccc4c(=O)[nH]c(=O)n(c34)C2)cc1 (centres unmarked) [Example 29, 4-(Dimethylamino)-N-[(1,3-dioxo-2,3,6,7-tetrahydro-1H,5H-pyrido[3,2,1-ij]quinazolin-6-yl)methyl]benzamide]
279 to 281 °C (dec.) | O=C(NCC1Cc2cccc3c(=O)[nH]c(=O)n(c23)C1)c1ccnnc1 (centres unmarked) [Example 32, N-[(1,3-Dioxo-2,3,6,7-tetrahydro-1H,5H-pyrido[3,2,1-ij]quinazolin-6-yl)methyl]-4-pyridazinecarboxamide]
282 to 285 °C | O=C(NCC1Cc2cccc3c(=O)[nH]c(=O)n(c23)C1)c1ccncc1 (centres unmarked) [Example 23, N-[(1,3-Dioxo-2,3,6,7-tetrahydro-1H,5H-pyrido[3,2,1-ij]quinazolin-6-yl)methyl]isonicotinamide]
240 to 242 °C (dec.) | O=C(NCC1Cc2cccc3c(=O)[nH]c(=O)n(c23)C1)C1CCN(Cc2ccccc2)CC1 (centres unmarked) [Example 35, 1-Benzyl-N-[(1,3-dioxo-2,3,6,7-tetrahydro-1H,5H-pyrido[3,2,1-ij]-quinazolin-6-yl)methyl]-4-piperidinecarboxamide]
192 to 196 °C | O=c1[nH]c(=O)n2c3c(cccc13)CCCC2 [Example 48, 5,6,7,8-Tetrahydro-1H-azepino[3,2,1-ij]quinazoline-1,3(2H)-dione]
280 to 281 °C (dec.) | O=C(NCC1Cc2cccc3c(=O)[nH]c(=O)n(c23)C1)C1CCCCC1 (centres unmarked) [Example 30, N-[(1,3-Dioxo-2,3,6,7-tetrahydro-1H,5H-pyrido[3,2,1-ij]quinazolin-6-yl)methyl]cyclohexanecarboxamide]
158 to 170 °C | CN(C)c1cccc(C(=O)NCC2Cc3cccc4c(=O)[nH]c(=O)n(c34)C2)c1 (centres unmarked) [Example 28, 3-(Dimethylamino)-N-[(1,3-dioxo-2,3,6,7-tetrahydro-1H,5H-pyrido[3,2,1-ij]quinazolin-6-yl)methyl]benzamide]
246 to 250 °C (dec.) | CN1CCC(C(=O)NCC2Cc3cccc4c(=O)[nH]c(=O)n(c34)C2)CC1 (centres unmarked) [Example 34, N-[(1,3-Dioxo-2,3,6,7-tetrahydro-1H,5H-pyrido[3,2,1-ij]quinazolin-6-yl)methyl]-1-methyl-4-piperidinecarboxamide]
275 °C (dec.) | O=C(Cc1ccccc1)NCC1Cc2cccc3c(=O)[nH]c(=O)n(c23)C1 (centres unmarked) [Example 26, N-[(1,3-Dioxo-2,3,6,7-tetrahydro-1H,5H-pyrido[3,2,1-ij]quinazolin-6-yl)methyl]-2-phenylacetamide]
260 to 266 °C (dec.) | O=c1[nH]c(=O)n2c3c(cccc13)C(O)C2 (centres unmarked) [Example 46, 6-hydroxy-5,6-dihydro-1H-pyrrolo[3,2,1-ij]quinazoline-1,3(2H)-dione]
220 to 236 °C | CN(C)c1ccccc1C(=O)NCC1Cc2cccc3c(=O)[nH]c(=O)n(c23)C1 (centres unmarked) [Example 27, 2-(Dimethylamino)-N-[(1,3-dioxo-2,3,6,7-tetrahydro-1H,5H-pyrido[3,2,1-ij]quinazolin-6-yl)methyl]benzamide]
255 to 257 °C (dec.) | O=C(NCC1Cc2cccc3c(=O)[nH]c(=O)n(c23)C1)c1cnccn1 (centres unmarked) [Example 31, N-[(1,3-Dioxo-2,3,6,7-tetrahydro-1H,5H-pyrido[3,2,1-ij]quinazolin-6-yl)methyl]-2-pyrazinecarboxamide]

molecular target: T1, recombinant human PARP (Homo sapiens, UniProt P09874); experiment: PARP inhibitory activity ([3H]NAD incorporation, filter assay); format: biochemical; conditions: recombinant human PARP 2 units/ml, 0.3 μM [3H]NAD, DNA 3 μg/ml, room temperature 1.5 hour, duplicate; read-out: IC50 (inhibitory rate of PARP activity)
T1 construct: purchased Trevigen, Inc. (USA)
Protocol: PARP (recombinant human PARP, 660 units/mg) (Trevigen, Inc. (USA))
A buffer (50 mM Tris-HCl (pH8.0)/25 mM MgCl2 aqueous solution) was used in preparation of each solution.
To a 96-well round bottom plate made of polypropylene were added successively a test compound solution (20 μl/well), 1 μM [^3H]NAD (specific activity: 7 kBq/ml) containing 10 μg/ml of DNA (30 μl/well), and 4 units/ml (6 μg/ml) PARP solution (50 μl/well), and the plate was placed under room temperature for 1.5 hour for the reaction (final concentrations of each reagent in the reaction solution: DNA: 3 μg/ml; [^3H]NAD: 0.3 μM/specific activity of 2.1 kBq/ml; PARP: 2 units/ml (3 μg/ml)). The reaction was terminated by addition of a 24 mM benzamide (9 μl/well, 2 mM after the addition), and the PARP in the reaction solution was recovered by using a cell harvester (HARVESTER 96 (registered trade name), TOMTEC Inc. (USA)) on the glass fiber filter for plate. Said glass fiber filter had been soaked with 80% ethanol just prior to the recovary of PARP, and after the recovary of PARP, each well of the plate was washed four times with 80% ethanol, and the washings were also passed through the glass fiber filter. Said glass fiber filter was dried by heating with a microwave oven for 3 to 4 minutes, and put into a sample bag being sandwiched between 2 solid scintillant sheets, and said sample bag was sealed by heat sealing. The bag was put on a heater at about 50° C. to melt the scintillant with heat in order to penetrate it into the filter. The plate was cooled to room temperature, and the [^3H] count of poly(ADP-ribose) (cpm) bound to PARP was measured with a counter for plate (1450 MicroBeta (registered trade name) TriLux, PerkinElmer, Inc. (USA)) for 10 minutes per plate.
The inhibitory rate of PARP activity was calculated by the following equation. [formula]
The inhibitory rate of each test compound was measured in duplicate, and an IC50 value thereof was calculated therefrom.

T1 sequence (P09874 whole entry): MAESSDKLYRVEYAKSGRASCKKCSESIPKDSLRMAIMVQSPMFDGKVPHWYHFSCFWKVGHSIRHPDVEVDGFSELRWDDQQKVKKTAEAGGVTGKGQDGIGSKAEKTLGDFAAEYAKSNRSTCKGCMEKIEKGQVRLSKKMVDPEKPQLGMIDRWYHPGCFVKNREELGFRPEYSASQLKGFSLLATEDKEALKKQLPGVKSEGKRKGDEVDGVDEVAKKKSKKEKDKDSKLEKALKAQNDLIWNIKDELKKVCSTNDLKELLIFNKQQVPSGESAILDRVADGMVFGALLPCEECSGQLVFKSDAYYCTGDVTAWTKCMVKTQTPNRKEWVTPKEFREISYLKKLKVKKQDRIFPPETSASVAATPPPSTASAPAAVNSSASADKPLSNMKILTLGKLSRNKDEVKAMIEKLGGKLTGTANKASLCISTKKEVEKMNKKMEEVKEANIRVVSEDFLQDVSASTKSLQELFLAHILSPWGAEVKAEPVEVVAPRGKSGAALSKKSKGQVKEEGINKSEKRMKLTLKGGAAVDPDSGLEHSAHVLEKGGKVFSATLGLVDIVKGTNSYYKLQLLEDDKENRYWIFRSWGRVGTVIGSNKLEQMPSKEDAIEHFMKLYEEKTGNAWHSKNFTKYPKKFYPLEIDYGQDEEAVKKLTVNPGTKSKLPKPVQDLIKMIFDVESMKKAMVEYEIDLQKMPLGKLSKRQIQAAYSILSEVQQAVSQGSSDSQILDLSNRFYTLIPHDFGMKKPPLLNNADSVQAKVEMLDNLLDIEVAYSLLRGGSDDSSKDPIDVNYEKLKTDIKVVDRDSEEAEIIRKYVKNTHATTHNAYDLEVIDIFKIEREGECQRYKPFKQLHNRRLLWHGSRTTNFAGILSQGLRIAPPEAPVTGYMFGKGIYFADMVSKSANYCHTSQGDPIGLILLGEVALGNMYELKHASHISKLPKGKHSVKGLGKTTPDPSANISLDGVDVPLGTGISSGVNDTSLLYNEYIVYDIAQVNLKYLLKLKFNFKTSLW

Structure (SMILES) | IC50 [nM]
O=c1[nH]c(=O)n2c3c(cccc13)CC2 [Example 1, 5,6-dihydro-1H-pyrrolo[3,2,1-ij]quinazoline-1,3(2H)-dione] | 140
O=c1[nH]c(=O)n2c3c(cccc13)CCC2 [Example 2, 6,7-Dihydro-1H,5H-pyrido[3,2,1-ij]quinazoline-1,3(2H)-dione] | 52

Now from value to compound:

IC50 [nM] | Structure (SMILES)
< 5 | CN(C)c1ccc(C(=O)NCC2Cc3cccc4c(=O)[nH]c(=O)n(c34)C2)cc1 (centres unmarked) [Example 29, 4-(Dimethylamino)-N-[(1,3-dioxo-2,3,6,7-tetrahydro-1H,5H-pyrido[3,2,1-ij]quinazolin-6-yl)methyl]benzamide]
7.4 | O=C(NCC1Cc2cccc3c(=O)[nH]c(=O)n(c23)C1)C1CCNCC1 (centres unmarked) [Example 39, N-[(1,3-Dioxo-2,3,6,7-tetrahydro-1H,5H-pyrido[3,2,1-ij]quinazolin-6-yl)methyl]-4-piperidinecarboxamide hydrochloride]
